“Also recorded” adds a separate entry of the source.
How the values were obtained:
[1] = system: bacteria; experiment: antibacterial efficacy by cup scrub method on humans against the composition without TCC; type: in vivo
Experimental: Using the formulation of Example 1 or Example 2 but with varying amounts of TCC, the amide wherein R is cocoyl, p is 2 and n is 1, and the alcohol wherein R′ is lauryl and q is 7, antibacterial efficacy is measured using a cup scrub method on humans against the composition without TCC.

[2] = stability of TCC in body cleansing composition (precipitate/crystals on storage); type: physicochemical; conditions: for Comments (precipitate/crystals of TCC): 0.15% TCC in body cleansing composition
Text: Further work on the usefulness of this invention may be seen in the stability data of Example 5. TCC at 0.15% was incorporated in a body cleansing composition of (which may also include the types described above). using Promidium CO alone and in combination with Laureth-7.

Molecule: O=C(Nc1ccc(Cl)cc1)Nc1ccc(Cl)c(Cl)c1 [TCC, 3,4,4′-trichlorocarbanilide]
- log reduction of bacteria ([1]; TCC in the compositions, measured against a composition without TCC): greater than 1 log
- Comments (precipitate/crystals of TCC) ([2]; Promidium CO 0.675%, Laureth-7 0.675%): no precipitate or crystals were observed; also recorded: No Precipitate or crystals even
- Comments (precipitate/crystals of TCC) ([2]; Promidium CO 3.0%, Laureth-7 0.0%): precipitate/crystals of TCC were observed at the bottom of the container after 4-5 weeks; also recorded: Precipitate/Crystals in 4-5 Weeks
- time for which no precipitate or crystals were observed ([2]; body cleansing composition with combination of Promidium CO and Laureth-7): ≥ 13 weeks

Molecule: PPG-2 hydroxyethyl cocoamide [Promidium CO]
- effect of presence on antibacterial efficacy ([1]; presence of Promidium Co and/or laureth-7 in the composition): does not significantly affect antibacterial efficacy

— patent publication US20040121936A1, “Composition” (Colgate-Palmolive Company, priority 2001, published 2004)
